Measured values reported in the supplement of paper PMC10627819.

Columns and labels:
Test in all cases: Bliss interaction score (quartile over a dose matrix) (fitness difference); higher = more antagonism (negative = synergy)
S. aureus Newman = test system: S. aureus Newman
Procedure, shortened: (§1)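 The Bliss score subtracts expected fitness, the product of the single-drug fitness values, from observed fitness. Fitness is plate-normalised OD595 at entry into stationary phase, relative to the robust no-drug mean and capped at 1, with single-drug fitness inferred from combinations. Summaries are quartiles over technical, biological and donor/recipient replicates.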

B. subtilis 168 = test system: B. subtilis 168
Procedure, shortened: as §1

S. aureus DSM 20231 = test system: S. aureus DSM 20231
Procedure, shortened: as §1

S. pneumoniae D39V = test system: S. pneumoniae D39V
Procedure, shortened: as §1
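Also: first quartile when negative (synergy) and third quartile when positive (antagonism).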

Row | Structure (SMILES) | Bliss interaction score (S. aureus Newman) | Bliss interaction score (B. subtilis 168) | Bliss interaction score (S. aureus DSM 20231) | Bliss interaction score (S. pneumoniae D39V) | Bliss interaction score (S. aureus Newman; main component drawn) | Bliss interaction score (B. subtilis 168; main component drawn) | Bliss interaction score (S. aureus DSM 20231; main component drawn) | Bliss interaction score (S. pneumoniae D39V; main component drawn)
1 | CN[C@H](CC(C)C)C(=O)N[C@H]1C(=O)N[C@@H](CC(N)=O)C(=O)N[C@H]2C(=O)N[C@H]3C(=O)N[C@H](C(=O)N[C@H](C(=O)O)c4cc(O)cc(O)c4-c4cc3ccc4O)[C@H](O[C@H]3C[C@](C)(N)[C@@H](O)[C@H](C)O3)c3ccc(c(Cl)c3)Oc3cc2cc(c3O[C@@H]2O[C@H](CO)[C@@H](O)[C@H](O)[C@H]2O[C@H]2C[C@](C)(NCc3ccc(-c4ccc(Cl)cc4)cc3)[C@@H](O)[C@H](C)O2)Oc2ccc(cc2Cl)[C@H]1O [Oritavancin] + COc1cc(Cc2cnc(N)nc2N)cc(OC)c1OC [Trimethoprim] | -0.111 | 0.0391 | -0.0406 | 0.078 |  |  |  | 
2 | CC[C@H](C)[C@H](N)C1=N[C@H](C(=O)N[C@@H](CC(C)C)C(=O)N[C@H](CCC(=O)O)C(=O)N[C@H](C(=O)N[C@H]2CCCCNC(=O)[C@H](CC(N)=O)NC(=O)[C@@H](CC(=O)O)NC(=O)[C@H](Cc3cnc[nH]3)NC(=O)[C@@H](Cc3ccccc3)NC(=O)[C@H]([C@@H](C)CC)NC(=O)[C@@H](CCCN)NC2=O)[C@@H](C)CC)CS1 [Bacitracin] + O=C1CN(/N=C/c2ccc([N+](=O)[O-])o2)C(=O)N1 [Nitrofurantoin] |  |  |  |  | 0.0654 | -0.192 | -0.0336 | -0.0709
3 | CC[C@H](C)[C@H](N)C1=N[C@H](C(=O)N[C@@H](CC(C)C)C(=O)N[C@H](CCC(=O)O)C(=O)N[C@H](C(=O)N[C@H]2CCCCNC(=O)[C@H](CC(N)=O)NC(=O)[C@@H](CC(=O)O)NC(=O)[C@H](Cc3cnc[nH]3)NC(=O)[C@@H](Cc3ccccc3)NC(=O)[C@H]([C@@H](C)CC)NC(=O)[C@@H](CCCN)NC2=O)[C@@H](C)CC)CS1 [Bacitracin] + CO[C@H]1/C=C/O[C@@]2(C)Oc3c(C)c(O)c4c(O)c(c(/C=N/N5CCN(C)CC5)c(O)c4c3C2=O)NC(=O)/C(C)=C\C=C\[C@H](C)[C@H](O)[C@@H](C)[C@@H](O)[C@@H](C)[C@H](OC(C)=O)[C@@H]1C [Rifampicin] |  |  |  |  | -0.0236 | -0.0806 | 0.0174 | 0.104
4 | CN[C@H](CC(C)C)C(=O)N[C@H]1C(=O)N[C@@H](CC(N)=O)C(=O)N[C@H]2C(=O)N[C@H]3C(=O)N[C@H](C(=O)N[C@H](C(=O)O)c4cc(O)cc(O)c4-c4cc3ccc4O)[C@H](O[C@H]3C[C@](C)(N)[C@@H](O)[C@H](C)O3)c3ccc(c(Cl)c3)Oc3cc2cc(c3O[C@@H]2O[C@H](CO)[C@@H](O)[C@H](O)[C@H]2O[C@H]2C[C@](C)(NCc3ccc(-c4ccc(Cl)cc4)cc3)[C@@H](O)[C@H](C)O2)Oc2ccc(cc2Cl)[C@H]1O [Oritavancin] + Cn1nnc(-c2ccc(-c3ccc(N4C[C@H](CO)OC4=O)cc3F)cn2)n1 [Tedizolid] | -0.0895 | -0.0251 | -0.0541 | -0.0205 |  |  |  | 
5 | CC[C@H]1OC(=O)[C@H](C)[C@@H](O[C@H]2C[C@@](C)(OC)[C@@H](O)[C@H](C)O2)[C@H](C)[C@@H](O[C@@H]2O[C@H](C)C[C@H](N(C)C)[C@H]2O)[C@](C)(O)C[C@@H](C)C(=O)[C@H](C)[C@@H](O)[C@]1(C)O [Erythromycin] + CN1C2=CC=CC=C2N=C3C1=CC=CC3=O [Pyocyanin] | -0.051 | 0.0449 | -0.0317 | -0.0454 |  |  |  | 
6 | CC[C@H]1OC(=O)[C@H](C)[C@@H](O[C@H]2C[C@@](C)(OC)[C@@H](O)[C@H](C)O2)[C@H](C)[C@@H](O[C@@H]2O[C@H](C)C[C@H](N(C)C)[C@H]2O)[C@](C)(O)C[C@@H](C)C(=O)[C@H](C)[C@@H](O)[C@]1(C)O [Erythromycin] + COc1cc(Cc2cnc(N)nc2N)cc(OC)c1OC [Trimethoprim] | 0.0715 | -0.155 | 0.0179 | -0.0464 |  |  |  | 
7 | CC[C@H]1OC(=O)[C@H](C)[C@@H](O[C@H]2C[C@@](C)(OC)[C@@H](O)[C@H](C)O2)[C@H](C)[C@@H](O[C@@H]2O[C@H](C)C[C@H](N(C)C)[C@H]2O)[C@](C)(O)C[C@@H](C)C(=O)[C@H](C)[C@@H](O)[C@]1(C)O [Erythromycin] + CN(C)C(=O)C(CCN1CCC(O)(c2ccc(Cl)cc2)CC1)(c1ccccc1)c1ccccc1 [Loperamide] | -0.039 | 0.0381 | 0.0888 | 0.116 |  |  |  | 
8 | CN[C@H](CC(C)C)C(=O)N[C@H]1C(=O)N[C@@H](CC(N)=O)C(=O)N[C@H]2C(=O)N[C@H]3C(=O)N[C@H](C(=O)N[C@H](C(=O)O)c4cc(O)cc(O)c4-c4cc3ccc4O)[C@H](O[C@H]3C[C@](C)(N)[C@@H](O)[C@H](C)O3)c3ccc(c(Cl)c3)Oc3cc2cc(c3O[C@@H]2O[C@H](CO)[C@@H](O)[C@H](O)[C@H]2O[C@H]2C[C@](C)(NCc3ccc(-c4ccc(Cl)cc4)cc3)[C@@H](O)[C@H](C)O2)Oc2ccc(cc2Cl)[C@H]1O [Oritavancin] + CN[C@@H]1[C@H](O[C@H]2[C@H](O[C@H]3[C@H](O)[C@@H](O)[C@H](N=C(N)N)[C@@H](O)[C@@H]3N=C(N)N)O[C@@H](C)[C@]2(O)C=O)O[C@@H](CO)[C@H](O)[C@H]1O [Streptomycin] | -0.138 | -0.0219 | -0.111 | 0.0462 |  |  |  | 
9 | CN[C@H](CC(C)C)C(=O)N[C@H]1C(=O)N[C@@H](CC(N)=O)C(=O)N[C@H]2C(=O)N[C@H]3C(=O)N[C@H](C(=O)N[C@H](C(=O)O)c4cc(O)cc(O)c4-c4cc3ccc4O)[C@H](O[C@H]3C[C@](C)(N)[C@@H](O)[C@H](C)O3)c3ccc(c(Cl)c3)Oc3cc2cc(c3O[C@@H]2O[C@H](CO)[C@@H](O)[C@H](O)[C@H]2O[C@H]2C[C@](C)(NCc3ccc(-c4ccc(Cl)cc4)cc3)[C@@H](O)[C@H](C)O2)Oc2ccc(cc2Cl)[C@H]1O [Oritavancin] + CC[C@H]1OC(=O)[C@H](C)C(=O)[C@H](C)[C@@H](O[C@@H]2O[C@H](C)C[C@H](N(C)C)[C@H]2O)[C@](C)(OC)C[C@@H](C)C(=O)[C@H](C)[C@H]2N(CCCCn3cnc(-c4cccnc4)c3)C(=O)O[C@]12C [Telithromycin] | -0.0486 | 0.0211 | -0.0333 | 0.0281 |  |  |  | 
10 | CO[C@@]12[C@H](COC(N)=O)C3=C(C(=O)C(C)=C(N)C3=O)N1C[C@@H]1N[C@@H]12 [MitomycinC] + Cc1cc(NS(=O)(=O)c2ccc(N)cc2)no1 [Sulfamethoxazol] | 0.0863 | 0.082 | 0.036 | -0.0583 |  |  |  | 
11 | CC(=O)NC[C@H]1CN(c2ccc(N3CCOCC3)c(F)c2)C(=O)O1 [Linezolid] + CC1(C)S[C@@H]2[C@H](NC(=O)Cc3ccccc3)C(=O)N2[C@H]1C(=O)O [PenicillinG] | -0.0481 | -0.0653 | 0.0632 | 0.0505 |  |  |  | 
12 | CN[C@H](CC(C)C)C(=O)N[C@H]1C(=O)N[C@@H](CC(N)=O)C(=O)N[C@H]2C(=O)N[C@H]3C(=O)N[C@H](C(=O)N[C@H](C(=O)O)c4cc(O)cc(O)c4-c4cc3ccc4O)[C@H](O[C@H]3C[C@](C)(N)[C@@H](O)[C@H](C)O3)c3ccc(c(Cl)c3)Oc3cc2cc(c3O[C@@H]2O[C@H](CO)[C@@H](O)[C@H](O)[C@H]2O[C@H]2C[C@](C)(NCc3ccc(-c4ccc(Cl)cc4)cc3)[C@@H](O)[C@H](C)O2)Oc2ccc(cc2Cl)[C@H]1O [Oritavancin] + C[n+]1ccc(-c2cc[n+](C)cc2)cc1 [Paraquat] | -0.065 | -0.0221 | -0.0738 | -0.044 |  |  |  | 
13 | CC[C@H]1OC(=O)[C@H](C)[C@@H](O[C@H]2C[C@@](C)(OC)[C@@H](O)[C@H](C)O2)[C@H](C)[C@@H](O[C@@H]2O[C@H](C)C[C@H](N(C)C)[C@H]2O)[C@](C)(O)C[C@@H](C)C(=O)[C@H](C)[C@@H](O)[C@]1(C)O [Erythromycin] + CC1(C)S[C@@H]2[C@H](NC(=O)Cc3ccccc3)C(=O)N2[C@H]1C(=O)O [PenicillinG] | -0.0654 | 0.0463 | 0.0265 | -0.0381 |  |  |  | 
14 | CO[C@@H]1[C@@H](OC(N)=O)[C@@H](O)[C@H](Oc2ccc3c(O)c(NC(=O)c4ccc(O)c(CC=C(C)C)c4)c(=O)oc3c2C)OC1(C)C [Novobiocin] + CC[C@H]1OC(=O)[C@H](C)C(=O)[C@H](C)[C@@H](O[C@@H]2O[C@H](C)C[C@H](N(C)C)[C@H]2O)[C@](C)(OC)C[C@@H](C)C(=O)[C@H](C)[C@H]2N(CCCCn3cnc(-c4cccnc4)c3)C(=O)O[C@]12C [Telithromycin] | -0.0192 | 0.0833 | 0.0515 | 0.0464 |  |  |  | 
15 | CO[C@@]12[C@H](COC(N)=O)C3=C(C(=O)C(C)=C(N)C3=O)N1C[C@@H]1N[C@@H]12 [MitomycinC] + C[n+]1ccc(-c2cc[n+](C)cc2)cc1 [Paraquat] | 0.04 | 0.0434 | -0.0406 | -0.0446 |  |  |  | 
16 | CC[C@H]1OC(=O)[C@H](C)[C@@H](O[C@H]2C[C@@](C)(OC)[C@@H](O)[C@H](C)O2)[C@H](C)[C@@H](O[C@@H]2O[C@H](C)C[C@H](N(C)C)[C@H]2O)[C@](C)(O)C[C@@H](C)C(=O)[C@H](C)[C@@H](O)[C@]1(C)O [Erythromycin] + C/C(=C\C(=O)OCCCCCCCCC(=O)O)C[C@@H]1OC[C@H](C[C@@H]2O[C@H]2[C@@H](C)[C@H](C)O)[C@@H](O)[C@H]1O [Pseudomonic acid] | -0.0171 | 0.0626 | -0.0124 | 0.0664 |  |  |  | 
17 | CC[C@H](C)[C@H](N)C1=N[C@H](C(=O)N[C@@H](CC(C)C)C(=O)N[C@H](CCC(=O)O)C(=O)N[C@H](C(=O)N[C@H]2CCCCNC(=O)[C@H](CC(N)=O)NC(=O)[C@@H](CC(=O)O)NC(=O)[C@H](Cc3cnc[nH]3)NC(=O)[C@@H](Cc3ccccc3)NC(=O)[C@H]([C@@H](C)CC)NC(=O)[C@@H](CCCN)NC2=O)[C@@H](C)CC)CS1 [Bacitracin] + Oc1cc(Cl)ccc1Oc1ccc(Cl)cc1Cl [Triclosan] |  |  |  |  | -0.0148 | -0.136 | 0.0303 | 0.056
18 | CO[C@@]12[C@H](COC(N)=O)C3=C(C(=O)C(C)=C(N)C3=O)N1C[C@@H]1N[C@@H]12 [MitomycinC] + CN[C@@H]1[C@H](O)[C@H](NC)[C@H]2O[C@@]3(O)C(=O)C[C@@H](C)O[C@H]3O[C@@H]2[C@H]1O [Spectinomycin] | -0.0974 | 0.0749 | 0.0772 | -0.06 |  |  |  | 
19 | CC[C@H]1OC(=O)[C@H](C)[C@@H](O[C@H]2C[C@@](C)(OC)[C@@H](O)[C@H](C)O2)[C@H](C)[C@@H](O[C@@H]2O[C@H](C)C[C@H](N(C)C)[C@H]2O)[C@](C)(O)C[C@@H](C)C(=O)[C@H](C)[C@@H](O)[C@]1(C)O [Erythromycin] + C[C@@H](O)[C@H]1C(=O)N2C(C(=O)O)=C(SCCNC=N)C[C@H]12 [Imipenem] | 0.0221 | 0.078 | 0.0185 | -0.0344 |  |  |  | 
20 | CC[C@H]1OC(=O)[C@H](C)[C@@H](O[C@H]2C[C@@](C)(OC)[C@@H](O)[C@H](C)O2)[C@H](C)[C@@H](O[C@@H]2O[C@H](C)C[C@H](N(C)C)[C@H]2O)[C@](C)(O)C[C@@H](C)C(=O)[C@H](C)[C@@H](O)[C@]1(C)O [Erythromycin] + Cn1nnc(-c2ccc(-c3ccc(N4C[C@H](CO)OC4=O)cc3F)cn2)n1 [Tedizolid] | -0.07 | -0.0574 | -0.0541 | 0.0787 |  |  |  | 
21 | CC[C@H]1OC(=O)[C@H](C)[C@@H](O[C@H]2C[C@@](C)(OC)[C@@H](O)[C@H](C)O2)[C@H](C)[C@@H](O[C@@H]2O[C@H](C)C[C@H](N(C)C)[C@H]2O)[C@](C)(O)C[C@@H](C)C(=O)[C@H](C)[C@@H](O)[C@]1(C)O [Erythromycin] + C[C@H]1COc2c(N3CCN(C)CC3)c(F)cc3c(=O)c(C(=O)O)cn1c23 [Levofloxacin] | 0.0478 | 0.041 | 0.0327 | 0.0979 |  |  |  | 
